Patent US20170007561A1, “CONTEMPORANEOUS, HETEROGENEOUSLY-ORIENTED, MULTI-TARGETED THERAPEUTIC MODIFICATION AND/OR MODULATION OF DISEASE BY ADMINISTRATION OF SULFUR-CONTAINING, AMINO ACID-SPECIFIC SMALL MOLECULES” (BioNumerik Pharmaceuticals, Inc., priority 2014, published 2017)
Read-outs that look alike come from different tables or passages of the source. One block for each molecule: values may come before it.

Tests used:
[1] = test system: bovine brain microtubule protein (α-/β-tubulin); assay: Microtubule protein polymerization assay (OD350); format: biochemical; settings: for protection against monoaquocisplatin-induced loss of microtubule protein polymerization: preincubated with monoaquocisplatin (36 μM), mesna or cysteine 200 μM; for effect on microtubule protein polymerization: sodium chloride 32 mM control
bovine TrxR = target: T1, bovine TrxR (Bos taurus, UniProt O62768); assay: TrxR NADPH oxidation assay without Trx (Reaction A); format: biochemical; settings: TrxR alone + NADPH, no Trx
T1 construct: purchased American Diagnostica
T1 sequence (O62768 1-499): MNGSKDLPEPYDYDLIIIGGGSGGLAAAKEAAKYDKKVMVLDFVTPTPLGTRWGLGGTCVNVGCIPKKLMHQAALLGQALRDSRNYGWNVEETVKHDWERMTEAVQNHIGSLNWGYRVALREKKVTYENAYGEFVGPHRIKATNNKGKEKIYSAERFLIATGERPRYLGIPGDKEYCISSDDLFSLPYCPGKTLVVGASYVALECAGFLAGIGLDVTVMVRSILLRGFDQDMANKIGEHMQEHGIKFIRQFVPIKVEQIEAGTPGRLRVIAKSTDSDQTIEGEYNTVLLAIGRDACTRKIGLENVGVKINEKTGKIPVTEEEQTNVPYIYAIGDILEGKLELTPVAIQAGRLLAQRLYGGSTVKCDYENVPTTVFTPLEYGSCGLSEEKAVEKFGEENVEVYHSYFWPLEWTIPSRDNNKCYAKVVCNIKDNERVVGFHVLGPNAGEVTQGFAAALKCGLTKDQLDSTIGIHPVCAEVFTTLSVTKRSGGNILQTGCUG

TrxR/Trx system = target: T2, TrxR/Trx system (Homo sapiens, UniProt P10599); assay: TrxR/Trx NADPH oxidation assay; format: biochemical; settings: increasing concentrations of test substance
T2 construct: purchased Sigma (Trx); American Diagnostica (bovine TrxR)
T2 sequence (P10599 1-105): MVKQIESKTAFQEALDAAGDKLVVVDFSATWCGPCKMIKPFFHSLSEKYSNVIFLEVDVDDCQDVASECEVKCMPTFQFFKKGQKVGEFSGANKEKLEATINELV
Text: (Note: error bars are small and may be obscured by the symbols). […] (Note: error bars were omitted but assays were run in quadruplicate with typical errors of 5-8% between individual replicates). […] Panel D: Initial velocity reaction rates corresponding to progress curves shown in Panel C. With time, Trx-mesna and Trx-GSH are converted back to apo-Trx by Trx reductase (see also, FIG. 69, Panel E).

T790M EGFR kinase = T790M EGFR kinase (Homo sapiens, UniProt P00533, T790M); assay: EGFR kinase assay (ADP-glo, polyGT substrate), T790M mutant; format: biochemical; settings: for IC50: read-out: IC50, inhibition of T790M EGFR kinase; for effect on Erlotinib inhibition of T790M EGFR kinase activity: heteroconjugate in combination with Erlotinib, 10 μM and/or 100 μM ATP
ErbB-1 = ErbB-1 (Homo sapiens, UniProt P00533); settings: cited from earlier work
ErbB-3 = ErbB-3 (Homo sapiens, UniProt P21860); parameters: key: the “+” and “−” symbols signify the ability and inability to activate each of the ErbB receptors, respectively; the “+” and “−” symbols signify the ability and inability to activate each of the ErbB receptors, respectively; settings: cited from earlier work
ErbB-2 = ErbB-2 (Homo sapiens, UniProt P04626); parameters: key: the “+” and “−” symbols signify the ability and inability to activate each of the ErbB receptors, respectively; the “+” and “−” symbols signify the ability and inability to activate each of the ErbB receptors, respectively; settings: cited from earlier work
ErbB-4 = ErbB-4 (Homo sapiens, UniProt Q15303); parameters: key: the “+” and “−” symbols signify the ability and inability to activate each of the ErbB receptors, respectively; the “+” and “−” symbols signify the ability and inability to activate each of the ErbB receptors, respectively; settings: cited from earlier work
Chain of ErbB-4 (Q15303 26-1308, species assumed): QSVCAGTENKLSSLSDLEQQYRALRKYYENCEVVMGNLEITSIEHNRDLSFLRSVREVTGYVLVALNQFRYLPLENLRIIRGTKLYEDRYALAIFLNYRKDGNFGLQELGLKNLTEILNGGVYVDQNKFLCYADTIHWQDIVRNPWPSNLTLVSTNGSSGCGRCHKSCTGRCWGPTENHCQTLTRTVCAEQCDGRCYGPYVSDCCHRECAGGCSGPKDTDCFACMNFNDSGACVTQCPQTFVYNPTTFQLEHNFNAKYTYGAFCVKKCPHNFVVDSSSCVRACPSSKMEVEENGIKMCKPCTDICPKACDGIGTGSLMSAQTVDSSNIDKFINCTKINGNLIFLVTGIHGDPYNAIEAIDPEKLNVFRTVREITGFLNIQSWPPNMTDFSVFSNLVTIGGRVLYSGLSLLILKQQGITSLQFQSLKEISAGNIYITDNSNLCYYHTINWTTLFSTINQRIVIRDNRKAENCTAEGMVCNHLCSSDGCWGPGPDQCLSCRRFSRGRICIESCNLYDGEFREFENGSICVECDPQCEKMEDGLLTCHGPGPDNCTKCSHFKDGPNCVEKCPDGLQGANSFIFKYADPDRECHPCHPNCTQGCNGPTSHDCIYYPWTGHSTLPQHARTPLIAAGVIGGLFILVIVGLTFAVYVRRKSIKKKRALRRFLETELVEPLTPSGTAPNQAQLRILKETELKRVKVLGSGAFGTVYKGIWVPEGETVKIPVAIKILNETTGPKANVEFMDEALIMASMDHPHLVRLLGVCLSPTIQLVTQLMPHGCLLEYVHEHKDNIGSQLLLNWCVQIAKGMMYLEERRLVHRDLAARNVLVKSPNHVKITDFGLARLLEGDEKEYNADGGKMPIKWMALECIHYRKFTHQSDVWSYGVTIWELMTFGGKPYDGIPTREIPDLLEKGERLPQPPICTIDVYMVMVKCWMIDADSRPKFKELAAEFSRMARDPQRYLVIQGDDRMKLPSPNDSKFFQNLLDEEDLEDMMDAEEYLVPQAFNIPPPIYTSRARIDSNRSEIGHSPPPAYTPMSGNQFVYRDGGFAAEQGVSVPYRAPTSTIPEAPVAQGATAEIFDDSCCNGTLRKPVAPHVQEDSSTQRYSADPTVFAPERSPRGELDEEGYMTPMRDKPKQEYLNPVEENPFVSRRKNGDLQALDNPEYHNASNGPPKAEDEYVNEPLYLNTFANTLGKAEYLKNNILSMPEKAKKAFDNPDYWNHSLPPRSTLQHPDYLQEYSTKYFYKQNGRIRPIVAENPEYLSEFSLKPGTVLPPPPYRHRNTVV

[2] = target: T3, glutathione reductase (GR) (Homo sapiens, UniProt P00390); settings: cited from earlier work
T3 sequence (P00390 44-522): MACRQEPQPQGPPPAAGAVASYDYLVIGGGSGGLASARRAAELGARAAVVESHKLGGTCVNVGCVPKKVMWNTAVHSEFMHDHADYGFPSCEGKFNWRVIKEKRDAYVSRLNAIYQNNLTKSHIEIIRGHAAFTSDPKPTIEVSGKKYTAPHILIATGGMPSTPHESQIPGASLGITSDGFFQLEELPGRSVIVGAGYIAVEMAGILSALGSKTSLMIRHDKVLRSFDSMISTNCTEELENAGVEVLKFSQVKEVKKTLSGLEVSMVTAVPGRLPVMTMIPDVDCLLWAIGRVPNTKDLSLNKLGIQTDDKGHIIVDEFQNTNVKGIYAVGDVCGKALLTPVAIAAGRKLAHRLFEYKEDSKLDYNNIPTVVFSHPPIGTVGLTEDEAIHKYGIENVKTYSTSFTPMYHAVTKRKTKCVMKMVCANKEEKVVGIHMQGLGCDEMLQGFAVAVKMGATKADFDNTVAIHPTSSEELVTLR

[3] = test system: mammalian thioredoxin reductase (TrxR); settings: cited from earlier work
[4] = single oral dose of 100 mg to healthy volunteers; cited from earlier work

Molecule: N.N.O.[Cl][Pt+] [monoaquocisplatin, reference compound]
effect of extended exposure on microtubule protein polymerization ([1]; monoaquocisplatin 36 μM): loss of microtubule protein's ability to polymerize

Molecule: NC(CCSSCCS(=O)(=O)O)C(=O)O (stereo not drawn) [MSSH, mesna-homocysteine disulfide]
NADPH Oxidation, Reaction A (bovine TrxR; disulfide 0.5 mM): 0.0 ± 0.03 nmol/min/mL
NADPH oxidation by TrxR and Trx (TrxR/Trx system): increases

Molecule: NC(CCC(=O)NC(CSSCCS(=O)(=O)O)C(=O)NCC(=O)O)C(=O)O (stereo not drawn) [Mesna-Glutathione]
IC50 (T790M EGFR kinase; 10 μM ATP): 1280 ± 290 µM
IC50 (T790M EGFR kinase; 100 μM ATP): 1170 ± 10 µM
effect on Erlotinib inhibition of T790M EGFR kinase activity (T790M EGFR kinase): effectively potentiated

Molecule: NC(=O)CC[C@H](N)C(=O)O [glutamine, reference compound]
protection against monoaquocisplatin-induced loss of microtubule protein polymerization [1]: not seen

Molecule: amphiregulin: growth factor ligand of ErbB receptors
ability to activate ErbB-1 (ErbB-1): +
ability to activate ErbB-3 (ErbB-3): −
ability to activate ErbB-2 (ErbB-2): −
ability to activate ErbB-4 (ErbB-4): −

Molecule: NC(CSSCCS(=O)(=O)O)C(=O)NCC(=O)O (stereo not drawn) [Mesna-Cysteinylglycine]
IC50 (T790M EGFR kinase; 10 μM ATP): 510 ± 10 µM
IC50 (T790M EGFR kinase; 100 μM ATP): 410 ± 50 µM
effect on Erlotinib inhibition of T790M EGFR kinase activity (T790M EGFR kinase): effectively potentiated

Molecule: CS(=O)(=O)OCCCCOS(C)(=O)=O [busulfan]
Inhibition of GR [2]: not GR
Inhibition of TrxR [3]: irreversibly inhibited TrxR in a concentration- and time-dependent manner

Molecule: [Cl-].[Na+] [sodium chloride]
effect on microtubule protein polymerization [1]: did not inhibit
effect on microtubule protein polymerization ([1]; listed as NaCl): no effect

Molecule: COc1cccc2c1C(=O)c1c(O)c3c(c(O)c1C2=O)C[C@@](O)(C(C)=O)C[C@@H]3O[C@H]1C[C@H](N)[C@H](O)[C@H](C)O1 [daunorubicin]
Inhibition of TrxR [3]: not inhibitors of TrxR

Molecule: N[C@@H](CS)C(=O)O [cysteine, reference compound]
effect alone on microtubule protein polymerization ([1]; in the absence of monoaquocisplatin): neither mesna nor cysteine alone (in the absence of monoaquocisplatin) had any effect

Molecule: N.N.O=C([O-])C1(C(=O)[O-])CCC1.[Pt+2] [carboplatin]
Inhibition of GR [2]: could not inhibit either TrxR or GR
Inhibition of TrxR [3]: could not inhibit either TrxR or GR

Molecule: NC(CSSCCS(=O)(=O)O)C(=O)O (stereo not drawn) [Mesna-Cysteine]
IC50 (T790M EGFR kinase; 10 μM ATP): 3760 ± 260 µM
IC50 (T790M EGFR kinase; 100 μM ATP): 3030 ± 280 µM
effect on Erlotinib inhibition of T790M EGFR kinase activity (T790M EGFR kinase): effectively potentiated

NADPH Oxidation, Reaction A (bovine TrxR; insulin 86 μM): 0.3 ± .03 nmol/min/mL
Molecule: Insulin: positive control disulfide substrate of Trx [reference compound]

Molecule: epiregulin: growth factor ligand of ErbB receptors
ability to activate ErbB-1 (ErbB-1): +
ability to activate ErbB-3 (ErbB-3): −
ability to activate ErbB-2 (ErbB-2): −
ability to activate ErbB-4 (ErbB-4): +

Molecule: betacellulin: growth factor ligand of ErbB receptors
ability to activate ErbB-1 (ErbB-1): +
ability to activate ErbB-3 (ErbB-3): −
ability to activate ErbB-2 (ErbB-2): −
ability to activate ErbB-4 (ErbB-4): +

Molecule: O=C1[O][Pt]2([NH][C@@H]3CCCC[C@H]3[NH]2)[O]C1=O [oxaliplatin]
Inhibition of GR [2]: not GR
Inhibition of TrxR [3]: irreversibly inhibited TrxR

Molecule: O=P1(NCCCl)OCCCN1CCCl (stereo not drawn) [ifosfamide]
Inhibition of TrxR [3]: inhibited TrxR

Molecule: neuregulin 1
ability to activate ErbB-1 (ErbB-1): −
ability to activate ErbB-3 (ErbB-3): +
ability to activate ErbB-2 (ErbB-2): −
ability to activate ErbB-4 (ErbB-4): +

Molecule: N[C@@H](Cc1ccc(N(CCCl)CCCl)cc1)C(=O)O [melphalan]
Inhibition of GR [2]: not GR
Inhibition of TrxR [3]: irreversibly inhibited TrxR in a concentration- and time-dependent manner

Molecule: N.N.[Cl][Pt+2][Cl] [transplatin]
Inhibition of GR [2]: not GR
Inhibition of TrxR [3]: irreversibly inhibited TrxR

Molecule: EGF: growth factor ligand of ErbB receptors
ability to activate ErbB-3 (ErbB-3): −
ability to activate ErbB-2 (ErbB-2): −
ability to activate ErbB-4 (ErbB-4): −

Molecule: O=NN(CCCl)C(=O)NCCCl [carmustine]
Inhibition of GR [2]: can inhibit both GR and Trx
Inhibition of TrxR [3]: can inhibit both GR and Trx

Molecule: O=P1(N(CCCl)CCCl)NCCCO1 (stereo not drawn) [cyclophosphamide]
Inhibition of GR [2]: not GR
Inhibition of TrxR [3]: irreversibly inhibited TrxR in a concentration- and time-dependent manner

Molecule: HB-EGF: growth factor ligand of ErbB receptors
ability to activate ErbB-1 (ErbB-1): +
ability to activate ErbB-3 (ErbB-3): −
ability to activate ErbB-2 (ErbB-2): −
ability to activate ErbB-4 (ErbB-4): +

Molecule: O=C(O)CCCc1ccc(N(CCCl)CCCl)cc1 [chlorambucil]
Inhibition of GR [2]: not GR
Inhibition of TrxR [3]: irreversibly inhibited TrxR in a concentration- and time-dependent manner

Molecule: N.N.[Cl][Pt][Cl] [cisplatin]
Inhibition of GR [2]: not GR
Inhibition of TrxR [3]: irreversibly inhibited TrxR

Molecule: TGF-α: growth factor ligand of ErbB receptors
ability to activate ErbB-3 (ErbB-3): −
ability to activate ErbB-2 (ErbB-2): −
ability to activate ErbB-4 (ErbB-4): −

Molecule: NC(CSSCCS(=O)(=O)O)C(=O)NCC(=O)O (stereo not drawn) [MSSCG, mesna-cysteinyl glycine disulfide]
NADPH Oxidation, Reaction A (bovine TrxR; disulfide 0.5 mM): 0.2 ± 0.04 nmol/min/mL

Molecule: CC1=C(/C=C/C(C)=C/C=C/C(C)=C\C(=O)O)C(C)(C)CCC1 [13-cis-retinoic acid]
Inhibition of TrxR [3]: irreversible inhibition of TrxR

Molecule: NC(CSSCCS(=O)(=O)O)C(=O)NC(CCC(=O)O)C(=O)O (stereo not drawn) [Mesna-Cysteinylglutamate]
IC50 (T790M EGFR kinase; 10 μM ATP): 1090 ± 190 µM
IC50 (T790M EGFR kinase; 100 μM ATP): 1050 ± 80 µM
effect on Erlotinib inhibition of T790M EGFR kinase activity (T790M EGFR kinase): effectively potentiated

Molecule: NC(CSSCCS(=O)(=O)O)C(=O)NC(CCC(=O)O)C(=O)O (stereo not drawn) [MSSCE, mesna-cysteinyl glutamate disulfide]
NADPH Oxidation, Reaction A (bovine TrxR; disulfide 0.5 mM): 0.3 ± 0.02 nmol/min/mL

Molecule: N[C@@H](CCC(=O)O)C(=O)O [glutamate, reference compound]
protection against monoaquocisplatin-induced loss of microtubule protein polymerization [1]: not seen

Molecule: C#Cc1cccc(Nc2ncnc3cc(OCCOC)c(OCCOC)cc23)c1 [Erlotinib, reference compound]
Cmax [4]: 1390 ng/mL

B1: epigen: growth factor ligand of ErbB receptors (protein, UniProt Q6UW88 23-154, looked up)
Epigen: AAVTVTPPITAQQGNWTVNKTEADNIEGPIALKFSHLCLEDHNSYCINGACAFHHELEKAICRCFTGYTGERCEHLTLTSYAVDSYEKYIAIGIGVGLLLSGFLVIFYCYIRKRCLKLKSPYNVCSGERRPL
ability to activate ErbB-1 (ErbB-1): +
ability to activate ErbB-3 (ErbB-3): −
ability to activate ErbB-2 (ErbB-2): −
ability to activate ErbB-4 (ErbB-4): −
